Consider 18 compounds from PubChem BioAssay AID276 (DTP/NCI, 2004).

Where “and” joins values, the source holds several entries; their conditions need not be identical. Equal values may be shown once. Toxic doses and inconclusive results are not listed.

This test has as its system B6C3F1 mice, Lewis lung carcinoma iv, survival T/C. The test is described as follows: NCI In Vivo Anticancer Drug Screen. Data for tumor model Lewis Lung Carcinoma (intravenous) in B6C3F1 mice. The settings on record: endpoint: median survival time, schedule: Q01DX009 (ip), higher = longer survival. The method, then: The antitumor activity of compounds was measured in mice bearing transplantable tumors. Survival or tumor size were measured and the results are expressed as the measurement made in the treated group (T) divided by the measurement made in the vehicle treated control group (C). The tumor model used in this assay is Lewis Lung Carcinoma (intravenous) in B6C3F1 mice

Where [1] appears, read: dose: 12.5 mg/kg/injection, vehicle: Klucel (hydroxypropylcellulose) (HPC).
Where [2] appears, read: dose: 25.0 mg/kg/injection, vehicle: Klucel (hydroxypropylcellulose) (HPC).
Where [3] appears, read: dose: 50.0 mg/kg/injection, vehicle: Klucel (hydroxypropylcellulose) (HPC).
The mark [4] stands for this setting: dose: 12.5 mg/kg/injection, vehicle: saline with Tween-80.
Setting [5] is: dose: 25.0 mg/kg/injection, vehicle: saline with Tween-80.
[6] abbreviates: dose: 50.0 mg/kg/injection, vehicle: saline with Tween-80.
Where [7] appears, read: dose: 100.0 mg/kg/injection, vehicle: saline with Tween-80.
The mark [8] stands for this setting: dose: 6.25 mg/kg/injection, vehicle: saline.
Where [9] appears, read: dose: 12.5 mg/kg/injection, vehicle: saline.
The mark [10] stands for this setting: dose: 25.0 mg/kg/injection, vehicle: saline.
Where [11] appears, read: dose: 50.0 mg/kg/injection, vehicle: saline.
Setting [12] is: dose: 6.25 mg/kg/injection, vehicle: saline with Tween-80.
[13] abbreviates: dose: 100.0 mg/kg/injection, vehicle: Klucel (hydroxypropylcellulose) (HPC).
[14] abbreviates: dose: 25.0 mg/kg/injection, vehicle: DMSO.
[15] abbreviates: dose: 1.25 mg/kg/injection, vehicle: saline with Tween-80.
[16] abbreviates: dose: 2.5 mg/kg/injection, vehicle: saline with Tween-80.
Where [17] appears, read: dose: 5.0 mg/kg/injection, vehicle: saline with Tween-80.
Where [18] appears, read: dose: 10.0 mg/kg/injection, vehicle: saline with Tween-80.
Setting [19] is: dose: 0.78 mg/kg/injection, vehicle: saline.
[20] abbreviates: dose: 1.56 mg/kg/injection, vehicle: saline.
Setting [21] is: dose: 3.12 mg/kg/injection, vehicle: saline.

As for `O=CC(O)C(O)C(O)C(O)CO` (centres undefined), the T/C reads like this: (dose: 75.0 mg/kg/injection, vehicle: saline) 101 % of control; (dose: 150.0 mg/kg/injection, vehicle: saline) 97 % of control; (dose: 300.0 mg/kg/injection, vehicle: saline) 97 % of control; (dose: 600.0 mg/kg/injection, vehicle: saline) 97 % of control; (dose: 1200.0 mg/kg/injection, vehicle: saline) 96 % of control.
On to `NC(CSC(c1ccccc1)(c1ccccc1)c1ccccc1)C(=O)O` (centres undefined), for which the T/C (dose: 3.12 mg/kg/injection, vehicle: Klucel (hydroxypropylcellulose) (HPC)) is 116 % of control; the T/C (dose: 6.25 mg/kg/injection, vehicle: Klucel (hydroxypropylcellulose) (HPC)) is 96 % of control; the T/C under setting [1] is 111 % of control; the T/C under setting [2] is 102 % of control; the T/C under setting [3] is 107 % of control.
In the case of `c1cc(OCC2CO2)ccc1OCC1CO1` (centres undefined), the T/C is, setting by setting: under setting [4], 96 % of control; under setting [5], 94 % of control; under setting [6], 100 % of control; under setting [7], 96 % of control.
Consider `Nc1ncn(C2OC(CO)C(O)C2O)c(=O)n1` (centres undefined), for which the T/C was 111 % of control under setting [8]; 120 % of control under setting [9]; 115 % of control under setting [10]; 123 % of control under setting [11]; 170 % of control (dose: 200.0 mg/kg/injection, vehicle: saline); 161 % of control (dose: 400.0 mg/kg/injection, vehicle: saline).
Consider `Cc1cc(=O)n2c3c(c4c(cc13)c(CN(C)C)cc(=O)n4C)OC2`, for which the T/C is, setting by setting: under setting [12], 106 % of control; under setting [4], 105 % of control; under setting [5], 109 % of control; under setting [6], 123 % of control.
In the case of `O=N[O-].O=N[O-].O=N[O-].[Co+3].[NH-]CC[N-]CC[NH-]`, the T/C by setting is: under setting [8], 98 % of control; under setting [9], 115 % of control; under setting [10], 117 % of control; under setting [11], 90 % of control.
Take `Cc1cc(N2C(=O)CCSC2=S)ccc1Cl`: the T/C is, setting by setting: under setting [1], 120 % of control; under setting [2], 97 % of control; under setting [3], 102 % of control; under setting [13], 111 % of control; (dose: 200.0 mg/kg/injection, vehicle: Klucel (hydroxypropylcellulose) (HPC)) 124 % of control.
In the case of `[N-]=[N+]=CC(=O)CCC(=O)C=[N+]=[N-]`, the T/C is 92 % of control (dose: 0.39 mg/kg/injection, vehicle: DMSO); 95 % of control (dose: 0.78 mg/kg/injection, vehicle: DMSO); 121 % of control (dose: 1.5 mg/kg/injection, vehicle: DMSO); 112 % of control (dose: 3.0 mg/kg/injection, vehicle: DMSO); 115 % of control (dose: 6.0 mg/kg/injection, vehicle: DMSO); 108 % of control under setting [14].
In the case of `O=C(/C=C(\Cl)C(=O)NO)NO`, the T/C was 115 % of control under setting [8]; 112 % of control under setting [9]; 110 % of control under setting [11]; 104 % of control (dose: 100.0 mg/kg/injection, vehicle: saline).
Turning to `O=C1C=C[C@H](O)[C@@]2(CO)O[C@@H]12`, the T/C is 101 % of control (dose: 0.31 mg/kg/injection, vehicle: saline with Tween-80); 101 % of control (dose: 0.62 mg/kg/injection, vehicle: saline with Tween-80); 114 % of control under setting [15]; 98 % of control under setting [16]; 102 % of control under setting [17]; 93 % of control under setting [18].
In the case of `O=C(O[Si](Cc1ccccc1)(Cc1ccccc1)Cc1ccccc1)N(CCCl)CCCl`, the T/C is 100 % of control under setting [12]; 108 % of control under setting [4]; 90 % of control and 100 % of control under setting [5]; 103 % of control under setting [6]; 108 % of control and 123 % of control under setting [7]; 124 % of control (dose: 200.0 mg/kg/injection, vehicle: saline with Tween-80).
For `CC1=C(O)C(=O)[C@@H]2O[C@@H]2C1=O`, the T/C runs as follows: under setting [19], 94 % of control and 107 % of control; under setting [20], 89 % of control and 103 % of control; under setting [21], 92 % of control and 104 % of control; under setting [8], 95 % of control and 104 % of control; under setting [9], 100 % of control and 101 % of control.
With `O=C1c2ccccc2C(=O)c2c3c(cc(NCCNCCO)c21)N(CCO)CCN3`, the T/C reads like this: (dose: 12.5 mg/kg/injection, vehicle: DMSO) 101 % of control; under setting [14], 95 % of control; (dose: 50.0 mg/kg/injection, vehicle: DMSO) 104 % of control; (dose: 100.0 mg/kg/injection, vehicle: DMSO) 101 % of control; (dose: 200.0 mg/kg/injection, vehicle: DMSO) 96 % of control.
For the compound `O=CC(O)C(O)C(O)C(O)C(=O)O.[NH-]C1CCCCC1[NH-].[Pt+2]` (centres undefined), the T/C runs as follows: (dose: 0.2 mg/kg/injection, vehicle: saline) 93 % of control; (dose: 0.39 mg/kg/injection, vehicle: saline) 94 % of control; under setting [19], 93 % of control; under setting [20], 106 % of control.
As for `CCN1/C(=C/C=C/C=C\C=C\c2sc3ccc4ccccc4c3[n+]2CC)Sc2ccc3ccccc3c21`, the T/C under setting [15] is 104 % of control; the T/C under setting [16] is 100 % of control and 103 % of control; the T/C under setting [17] is 104 % of control; the T/C under setting [18] was 98 % of control; the T/C (dose: 20.0 mg/kg/injection, vehicle: saline with Tween-80) is 103 % of control.
With `Cc1cc(NCCCN(C)C)c2ccc3c(ccc4c(NCCCN(C)C)cc(C)nc43)c2n1`, the T/C (dose: 0.19 mg/kg/injection, vehicle: saline with Tween-80) is 101 % of control; the T/C (dose: 0.39 mg/kg/injection, vehicle: saline with Tween-80) is 109 % of control; the T/C (dose: 0.78 mg/kg/injection, vehicle: saline with Tween-80) is 100 % of control; the T/C (dose: 1.56 mg/kg/injection, vehicle: saline with Tween-80) was 95 % of control; the T/C (dose: 3.12 mg/kg/injection, vehicle: saline with Tween-80) was 100 % of control; the T/C under setting [21] was 109 % of control.
`Cc1cc(Nc2ccc3c(c2)OCO3)c2cc3c(cc2n1)OCO3`: the T/C was 100 % of control under setting [1]; 98 % of control under setting [2]; 98 % of control and 104 % of control under setting [3]; 101 % of control under setting [13].
In the case of `CC(=O)OC1C2(CC3N4C(=O)C5(CO)SSC4(CC31O)C(=O)N5C)OC(C)C(C)(C)C2=O` (centres undefined), the T/C is 101 % of control (dose: 0.08 mg/kg/injection, vehicle: saline); 88 % of control (dose: 0.15 mg/kg/injection, vehicle: saline); 105 % of control (dose: 0.31 mg/kg/injection, vehicle: saline); 92 % of control (dose: 0.62 mg/kg/injection, vehicle: saline); 86 % of control (dose: 1.25 mg/kg/injection, vehicle: saline).
